Experimental data published in patent US20240336617A1, “Substituted Bimane Compounds and Methods of Use Thereof” (THE TRUSTEES OF THE UNIVERSITY OF PENNSYLVANIA, priority 2023, published 2024).
“Also recorded” adds a separate entry of the source. Where two headings read alike, the source gives them in different places.

What was measured:
[1] = tested on: αS fibrils versus tau fibrils; assay: Amyloid selectivity by plate reader, αS versus tau fibrils; type: binding
Procedure: Experiments were performed on the Tecan Spark in Greiner 96 well flat black ½ area plates using the following parameters: excitation and emission band widths 5 nm, lag time 0 μs, integration time 40 μs. A 10 mM DMSO stock solution of probes (7j-7m) and 100 μM stock of αS fibrils were used in the study described herein.

[2] = molecular target: T1, amplified αS fibrils (AFs) from AD patient brain extracts (Homo sapiens, UniProt P37840); assay: Fluorescence measurements with AD patient cases (lysate, AFs, PFFs); type: binding; conditions: lysate or AFs and probe 1 μM
T1 construct: made in house; host or cells: recombinant αS monomer, seeded with sarkosyl-insoluble extract of human frontal cortex (AD or PDD)
Procedure: All procedures were performed in accordance with local institutional review board guidelines. Written informed consent for autopsy and analysis of tissue sample data was obtained either from patients themselves or their next of kin. Frozen postmortem human frontal cortex brain tissues from three patients diagnosed with Alzheimer's disease (AD) and three patients diagnosed with Parkinson's disease with dementia (PDD) were selected for sequential extraction of αS aggregates based on a high burden of αS pathology determined by immunohistochemical staining. […] These final sarkosyl-insoluble fractions are referred to as “brain extracts.: The amount of αS in the brain extracts was determined by sandwich ELISA using Syn9027, a mono-clonal antibody (Mab) to αS, and the protein concentrations were examined by bicinchoninic acid (BCA) assay. […]
(§1) Brain-derived αS aggregates in extract samples from three AD and three PDD cases (FIG. 38A) were used as seeds for templated aggregation of recombinant αS monomer. […] After seven days of incubation, amplification progress was determined by removing an aliquot and diluting tenfold in DPBS to a final αS concentration of 3.5 μM. […] Equal volumes of supernatant and pellet fractions were analyzed on SDS-PAGE gels and Western blot, with amplified aggregates migrating to the pellet fraction (FIG. 38B). […]

[3] = molecular target: T2, amplified αS fibrils (AFs) from PDD patient brain extracts (Homo sapiens, UniProt P37840); assay: Fluorescence measurements with PDD patient cases (lysate, AFs, PFFs); type: binding; conditions: lysate or AFs and probe 1 μM
T2 construct: made in house; host or cells: recombinant αS monomer, seeded with sarkosyl-insoluble extract of human frontal cortex (AD or PDD)
Procedure: All procedures were performed in accordance with local institutional review board guidelines. Written informed consent for autopsy and analysis of tissue sample data was obtained either from patients themselves or their next of kin. Frozen postmortem human frontal cortex brain tissues from three patients diagnosed with Alzheimer's disease (AD) and three patients diagnosed with Parkinson's disease with dementia (PDD) were selected for sequential extraction of αS aggregates based on a high burden of αS pathology determined by immunohistochemical staining. In brief, 5-10 g of frontal cortical gray matter were homogenized in five volumes (W/V) of high-salt (HS) buffer (50 mM Tris-HCl pH 7.4, 750 mM NaCl, 10 mM NaF, 5 mM EDTA) with protease and protein phosphatase inhibitors, incubated on ice for 20 min and centrifuged at 100,000×g for 30 min. The pellets were then re-extracted with HS buffer, followed by sequential extractions with five volumes of 1% Triton X-100-containing HS buffer and 1% Triton X-100-containing HS buffer with 30% sucrose. The pellets were then re-suspended and homogenized in 1% sarkosyl-containing HS buffer, rotated at room temperature for 2 h or at 4° C. overnight and centrifuged at 100,000×g for 30 min. […] These final sarkosyl-insoluble fractions are referred to as “brain extracts.: The amount of αS in the brain extracts was determined by sandwich ELISA using Syn9027, a mono-clonal antibody (Mab) to αS, and the protein concentrations were examined by bicinchoninic acid (BCA) assay. […]
as §1

[4] = background statement; cited from earlier work
[5] = Fluorescence (emission) measurements; type: physicochemical;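 further: fluorescence emission spectra recorded on a spectrofluorometer, with each compound excited at its own absorption maximum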
Procedure: The fluorescence spectrum of each derivative (150 μL) was measured on a Photon Technology International (PTI) QuantaMaster™ 40 fluorescence spectrometer by excitation at the maximum absorption wavelength for each compound.
The fluorescence spectrum of each derivative (150 μL) was measured on a Photon Technology International (PTJ) QuantaMaster™ 40 fluorescence spectrometer by excitation at the maximum absorption wavelength for each compound.

[6] = Molar absorptivity determination; type: physicochemical;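 further: molar absorptivity derived from UV-Vis absorbance spectra recorded for each derivative on a spectrometer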
Procedure: The absorbance spectrum of each derivative (150 μL) was measured on a Thermo Scientific Genesys 150 UV-Vis spectrometer, using 50:50 ACN/PBS as a blank.
Molar absorptivity determination. […] The absorbance spectrum of each derivative (150 μL) was measured on a Thermo Scientific Genesys 150 UV-Vis spectrometer, using 50:50 ACN/PBS as a blank.

[7] = Fluorescent quantum yield (QY) measurements; type: physicochemical
Procedure: For each QY measurement, the incident excitation light spectrum was collected with 1 mL of solvent. […] Using the JASCO Quantum Yield Software, the dye QY was calculated by dividing the dye fluorescence intensity by the difference in incident light intensity in the presence and absence of dye. The minimum excitation wavelength for a full excitation incident spectrum using this setup is 360 nm.
Fluorescent quantum yield (QY) measurements. For each QY measurement, the incident excitation light spectrum was collected with 1 mL of solvent. After measuring the incident light intensity, dye (3 and 5a-5k) was added to the solvent from a concentrated stock solution to a final concentration of […] and the new spectrum (fluorescence intensity and new incident light intensity) was collected. Using the JASCO Quantum Yield Software, the dye QY was calculated by dividing the dye fluorescence intensity by the difference in incident light intensity in the presence and absence of dye. The minimum excitation wavelength for a full excitation incident spectrum using this setup is 360 nm.

Aβ1-42 fibrils = molecular target: T3, Aβ1-42 fibrils (Homo sapiens, UniProt P05067); assay: Fluorescence and excitation spectra with Aβ1-42 fibrils; type: binding
T3 construct: The β-amyloid (1-42) peptide, human; purchased Genscript RP10017
Procedure: (§2) Fluorescence measurements were performed using a PTI QuantaMaster™ 40 fluorescence spectrometer. Fluorescence spectra of 10 μM probes (concentrated stock solution prepared as 10 mM in DMSO) (7j, 7k, 7l, 7m, and ThT) in PBS buffer were measured in the absence and presence of 50 μM Aβ1-42 fibrils (stock solution 1 mM Aβ1-42 in 10 mM phosphate buffer, pH 7.4).
(§3) Excitation spectral measurements were performed using a PTI QuantaMaster™ 40 fluorescence spectrometer. Excitation spectra of 10 μM probes (concentrated stock solution prepared as 10 mM in DMSO) (7j, 7k, 7l, 7m, and ThT) in PBS buffer were measured in the absence and presence of 50 μM Aβ1-42 fibrils (stock solution 1 mM Aβ1-42 in phosphate buffer).
as §2, with “(5j, 5k” for “(7j, 7k, 7l, 7m,”, “Ab1-42” for “Aβ1-42”
as §3, with “QuantaMaster” for “QuantaMaster™”, “(5j, 5k” for “(7j, 7k, 7l, 7m,”, “Ab1-42” for “Aβ1-42”, “buffer). […]” for “buffer).”

[8] = Absorbance measurements (UV-Vis); conditions: 25 μM
Procedure: Samples were individually diluted to the final concentration of 25 μM (500 μL) using 50:50 acetonitrile in phosphate buffered saline (ACN/PBS). The absorbance spectrum of each derivative (150 μL) was measured on a Thermo Scientific Genesys 150 UV-Vis spectrometer, using 50:50 ACN/PBS as a blank.

T3 sequence (P05067 672-713): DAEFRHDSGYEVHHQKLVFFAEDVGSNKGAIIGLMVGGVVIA

Compound | turn on with αS and tau fibrils [1] | fluorescence detection of AD amplified fibrils (AFs) [2] | fluorescence detection of PDD amplified fibrils (AFs) [3] | Stokes shift [4] | Stokes shift ([5]; ACN only) | Em. λem ([5]; ACN only, 25 μM) | Stokes shift ([5]; ACN:PBS (50:50 v/v)) | ε ([6]; ACN only) | ε ([6]; ACN:PBS (50:50 v/v)) | Q.Y. ([7]; ACN only) | Q.Y. ([7]; ACN:PBS (50:50 v/v)) | fluorescence turn on with Aβ1-42 fibrils (Aβ1-42 fibrils) | Abs. λabs ([8]; ACN only) | Abs. λabs ([8]; ACN:PBS (50:50 v/v))
Cc1ccc2c(c1)sc(-c1ccc(N(C)C)cc1)[n+]2C.[Cl-] [ThT, Thioflavin-T, reference compound] | high turn on with both αS and tau; also recorded: high turn-on with both αS and tau | barely registers significance for detection of AFs in AD samples | does not effectively detect these amplified fibrils; also recorded: unable to differentiate the lysates and AFs of PDD samples | ~50 nm |  |  |  |  |  |  |  |  |  | 
Cc1c(C)n2c(/C=C/c3nc4ccc(N(C)C)cc4s3)c(C)c(=O)n2c1=O [Compound 8f, (E)-3-(2-(6-(dimethylamino)benzo[d]thiazol-2-yl)vinyl)-2,5,6-trimethyl-1H,7H-pyrazolo[1,2-a]pyrazole-1,7-dione] |  |  |  |  | 189 nm | 624 nm | 195 nm | 25212 M⁻¹ cm⁻¹ | 22370 M⁻¹ cm⁻¹ | 44.2% | 0.77% | high turn on of fluorescence in the presence of PFFs; also recorded: selective fluorescence increases in the presence of Aβ1-42 fibrils | 435 nm | 447 nm
